Literature values as cited in patent publication US20100172982A1, “SUSTAINED RELEASE FORMULATIONS OF DIVALPROEX SODIUM” (SUN PHARMACEUTICAL INDUSTRIES LIMITED, priority 2007, published 2010).

Conditions: children

elimination half-life: four and fourteen
SMILES: CCCC(CCC)C(=O)O [valproic acid, 2-propylpenatnoic acid]
